Results published in US9924717B2, “Molecules having pesticidal utility, and intermediates, compositions, and processes, related thereto” (Dow AgroSciences LLC, priority 2016, dated 2018).
Like-named read-outs stand apart in the source and are kept apart here.

How the values were obtained:
[1] = system: Beet Armyworm (Spodoptera exigua, LAPHEG) (BAW); test: Bioassays on Beet Armyworm (BAW), 128-well diet tray assay; assay type: in vivo; settings: for mortality at 5 µg/cm2: 168 h, diet tray, second instar larvae, five to seven days, read-out: Percent control (or mortality) BAW; for pest or weed control at 50 µg/cm2: Table ABC rating, Beet Armyworm
Protocol: (§1) Example A: Bioassays on Beet Armyworm (Spodoptera exigua, LAPHEG) (“BAW”), Corn Earworm (Helicoverpa zea, Helize) (“CEW”), and Cabbage Looper (Trichoplusia ni, TRIPNI) (“CL”)
(§2) Certain molecules disclosed in this document were tested against BAW, CEW, and CL using procedures described in the following examples. In the reporting of the results, the “BAW, CEW, & CL Rating Table” was used (See Table Section).
Bioassays on BAW were conducted using a 128-well diet tray assay. one to five second instar BAW larvae were placed in each well (3 mL) of the diet tray that had been previously filled with 1 mL of artificial diet to which 50 μg/cm^2 of the test molecule (dissolved in 50 μL of 90:10 acetone-water mixture) had been applied (to each of eight wells) and then allowed to dry. Trays were covered with a clear self-adhesive cover and held at 25° C., 14:10 light-dark for five to seven days. Percent mortality was recorded for the larvae in each well; activity in the eight wells was then averaged. The results are indicated in the table entitled “Table ABC: Biological Results” (See Table Section).
(§3) Bioassays on BAW and CL were conducted according to the procedures outlined in Example A: Bioassays on Beet Armyworm (“BAW”) and Cabbage Looper (“CL”) using the indicated concentrations.

[2] = system: Cabbage Looper (Trichoplusia ni, TRIPNI) (CL); test: Bioassays on Cabbage Looper (CL), 128-well diet tray assay; assay type: in vivo; settings: for mortality at 5 µg/cm2: 168 h, diet tray, second instar larvae, five to seven days, read-out: Percent control (or mortality) CL; for pest or weed control at 50 µg/cm2: Table ABC rating, Cabbage Looper
Protocol: as §1, §2
Bioassays on CL were conducted using a 128-well diet tray assay. one to five second instar CL larvae were placed in each well (3 mL) of the diet tray that had been previously filled with 1 mL of artificial diet to which 50 μg/cm^2 of the test molecule (dissolved in 50 μL of 90:10 acetone-water mixture) had been applied (to each of eight wells) and then allowed to dry. Trays were covered with a clear self-adhesive cover and held at 25° C., 14:10 light-dark for five to seven days. Percent mortality was recorded for the larvae in each well; activity in the eight wells was then averaged. The results are indicated in the table entitled “Table ABC: Biological Results” (See Table Section).
as §3

[3] = 5 μg/cm^2 (first BAW/CL column pair)
[4] = 5 μg/cm^2 as printed (second BAW/CL column pair)

| SMILES | mortality at 5 µg/cm2 [1, 3] [%] | mortality at 5 µg/cm2 [1, 4] [%] | pest or weed control at 50 µg/cm2 [1] [%] | mortality at 5 µg/cm2 [2, 3] [%] | mortality at 5 µg/cm2 [2, 4] [%] | pest or weed control at 50 µg/cm2 [2] [%] |
| --- | --- | --- | --- | --- | --- | --- |
| O=C(NCC(F)(F)F)c1ccc(/C(F)=C/C(c2cc(Cl)c(Cl)c(Cl)c2)C(F)(F)F)cc1C(F)(F)F (stereo not shown) [F1, (Z)-4-(1,4,4,4-tetrafluoro-3-(3,4,5-trichlorophenyl)but-1-en-1-yl)-N-(2,2,2-trifluoroethyl)-2-(trifluoromethyl)benzamide] | 100 | 100 | 50 to 100 | 100 | 100 | 50 to 100 |
| CC(NC(=O)c1ccc(/C(F)=C/C(c2cc(Cl)c(Cl)c(Cl)c2)C(F)(F)F)cc1C(F)(F)F)C(F)(F)F (stereo not shown) [F2, (Z)-4-(1,4,4,4-Tetrafluoro-3-(3,4,5-trichlorophenyl)but-1-en-1-yl)-2-(trifluoromethyl)-N-(1,1,1-trifluoropropan-2-yl)benzamide] |  |  | 50 to 100 |  |  | 50 to 100 |
| O=C(NC1CCC(F)(F)CC1)c1ccc(/C(F)=C/C(c2cc(Cl)c(Cl)c(Cl)c2)C(F)(F)F)cc1C(F)(F)F (stereo not shown) [F4, (Z)—N-(4,4-Difluorocyclohexyl)-4-(1,4,4,4-tetrafluoro-3-(3,4,5-trichlorophenyl)but-1-en-1-yl)-2-(trifluoromethyl)benzamide] |  |  | 50 to 100 |  |  | 50 to 100 |
| O=C(c1ccc(/C(F)=C/C(c2cc(Cl)c(Cl)c(Cl)c2)C(F)(F)F)cc1Br)N1CCCC1 (stereo not shown) [F5, (Z)-(2-Bromo-4-(1,4,4,4-tetrafluoro-3-(3,4,5-trichlorophenyl)but-1-en-1-yl)phenyl)(pyrrolidin-1-yl)methanone] |  |  | 50 to 100 |  |  | 50 to 100 |
| O=C(c1ccc(/C(F)=C/C(c2cc(Cl)c(Cl)c(Cl)c2)C(F)(F)F)cc1C(F)(F)F)N1CCCC1 (stereo not shown) [F6, (Z)-Pyrrolidin-1-yl(4-(1,4,4,4-tetrafluoro-3-(3,4,5-trichlorophenyl)but-1-en-1-yl)-2-(trifluoromethyl)phenyl) methanone] |  |  | 50 to 100 |  |  | 50 to 100 |
| Cc1ccc([C@@H](C)NC(=O)c2ccc(/C(F)=C/C(c3cc(Cl)c(Cl)c(Cl)c3)C(F)(F)F)cc2C(F)(F)F)cc1 (stereo partly drawn) [F8, 4-((Z)-1,4,4,4-Tetrafluoro-3-(3,4,5-trichlorophenyl)but-1-en-1-yl)-N—((R)-1-(p-tolyl)ethyl)-2-(trifluoromethyl)benzamide] |  |  | 50 to 100 |  |  | 50 to 100 |
| O=C(NC1CCC(F)(F)CC1)c1ccc(/C(F)=C/C(c2cc(Cl)c(Cl)c(Cl)c2)C(F)(F)F)cc1Cl (stereo not shown) [F9, (Z)-2-Chloro-N-(4,4-difluorocyclohexyl)-4-(1,4,4,4-tetrafluoro-3-(3,4,5-trichlorophenyl)but-1-en-1-yl)benzamide] |  |  | 50 to 100 |  |  | 50 to 100 |
| O=C(NC1CCC(F)(F)CC1)c1ccc(/C(F)=C/C(c2cc(Cl)c(Cl)c(Cl)c2)C(F)(F)F)cc1Br (stereo not shown) [F10, (Z)-2-Bromo-N-(4,4-difluorocyclohexyl)-4-(1,4,4,4-tetrafluoro-3-(3,4,5-trichlorophenyl)but-1-en-1-yl)benzamide] |  |  | 50 to 100 |  |  | 50 to 100 |
| O=C(NC1CCCC(F)(F)C1)c1ccc(/C(F)=C/C(c2cc(Cl)c(Cl)c(Cl)c2)C(F)(F)F)cc1C(F)(F)F (stereo not shown) [F13, (Z)—N-(3,3-Difluorocyclohexyl)-4-(1,4,4,4-tetrafluoro-3-(3,4,5-trichlorophenyl)but-1-en-1-yl)-2-(trifluoromethyl)benzamide] |  |  | 50 to 100 |  |  | 50 to 100 |
| COc1cccc([C@@H](C)NC(=O)c2ccc(/C(F)=C/C(c3cc(Cl)c(Cl)c(Cl)c3)C(F)(F)F)cc2C(F)(F)F)c1 (stereo partly drawn) [F14, N—((R)-1-(3-Methoxyphenyl)ethyl)-4-((Z)-1,4,4,4-tetrafluoro-3-(3,4,5-trichlorophenyl)but-1-en-1-yl)-2-(trifluoromethyl)benzamide] |  |  | 50 to 100 |  |  | 50 to 100 |
| NC(=O)c1ccc(/C(F)=C/C(c2cc(Cl)c(Cl)c(Cl)c2)C(F)(F)F)cc1C(F)(F)F (stereo not shown) [F17, (Z)-4-(1,4,4,4-Tetrafluoro-3-(3,4,5-trichlorophenyl)but-1-en-1-yl)-2-(trifluoromethyl)benzamide] |  |  | 50 to 100 |  |  | 50 to 100 |
| CN(C)/C=N/C(=O)c1ccc(/C(F)=C/C(c2cc(Cl)c(Cl)c(Cl)c2)C(F)(F)F)cc1C(F)(F)F (stereo not shown) [F18, (E)-N-((dimethylamino)methylene)-4-((Z)-1,4,4,4-tetrafluoro-3-(3,4,5-trichlorophenyl)but-1-en-1-yl)-2-(trifluoromethyl)benzamide] |  |  | 50 to 100 |  |  | 50 to 100 |
| O=CNC(=O)c1ccc(/C(F)=C/C(c2cc(Cl)c(Cl)c(Cl)c2)C(F)(F)F)cc1C(F)(F)F (stereo not shown) [F20, (Z)—N-Formyl-4-(1,4,4,4-tetrafluoro-3-(3,4,5-trichlorophenyl)but-1-en-1-yl)-2-(trifluoromethyl)benzamide] |  |  | 50 to 100 |  |  | 50 to 100 |
| O=C(NC1CC1)c1ccc(/C(F)=C/C(c2ccc(Cl)c(Cl)c2)C(F)(F)F)cc1C(F)(F)F (stereo not shown) [F35, (Z)—N-Cyclopropyl-4-(3-(3,4-dichlorophenyl)-1,4,4,4-tetrafluorobut-1-en-1-yl)-2-(trifluoromethyl)benzamide] |  |  | 50 to 100 |  |  | 50 to 100 |
| CC(NC(=O)c1ccc(/C(F)=C/C(c2cc(Br)c(Cl)c(Br)c2)C(F)(F)F)cc1C(F)(F)F)C(F)(F)F (stereo not shown) [F36, 4-((Z)-3-(3,5-Dibromo-4-chlorophenyl)-1,4,4,4-tetrafluorobut-1-en-1-yl)-2-(trifluoromethyl)-N-(1,1,1-trifluoropropan-2-yl)benzamide] |  |  | 50 to 100 |  |  | 50 to 100 |
| Cc1cc(C(/C=C(\F)c2ccc(C(=O)NC3CC3)c(C(F)(F)F)c2)C(F)(F)F)cc(C)c1Cl (stereo not shown) [F37, (Z)-4-(3-(4-Chloro-3,5-dimethylphenyl)-1,4,4,4-tetrafluorobut-1-en-1-yl)-N-cyclopropyl-2-(trifluoromethyl)benzamide] |  |  | 50 to 100 |  |  | 50 to 100 |
| CC(NC(=O)c1ccc(/C(F)=C/C(c2cc(Cl)c(Br)c(Cl)c2)C(F)(F)F)cc1C(F)(F)F)C(F)(F)F (stereo not shown) [F38, 4-((Z)-3-(4-Bromo-3,5-dichlorophenyl)-1,4,4,4-tetrafluorobut-1-en-1-yl)-2-(trifluoromethyl)-N-(1,1,1-trifluoropropan-2-yl)benzamide] |  |  | 50 to 100 |  |  | 50 to 100 |
| Cc1cc(/C(F)=C/C(c2cc(Cl)c(Cl)c(Cl)c2)C(F)(F)F)ccc1C(=O)NCC(F)(F)F (stereo not shown) [F39, (Z)-2-Methyl-4-(1,4,4,4-tetrafluoro-3-(3,4,5-trichlorophenyl)but-1-en-1-yl)-N-(2,2,2-trifluoroethyl)benzamide] | 33 | 27 | 50 to 100 | 100 | 100 | 50 to 100 |
| O=C(NCc1ccnc(Cl)c1)c1ccc(/C(F)=C/C(c2cc(Cl)c(Cl)c(Cl)c2)C(F)(F)F)cc1C(F)(F)F (stereo not shown) [F47, (Z)—N-((2-Chloropyridin-4-yl)methyl)-4-(1,4,4,4-tetrafluoro-3-(3,4,5-trichlorophenyl)but-1-en-1-yl)-2-(trifluoromethyl)benzamide] |  |  | 50 to 100 |  |  | 50 to 100 |
| C[C@H](CNCC(F)(F)F)NC(=O)c1ccc(/C(F)=C/C(c2cc(Cl)c(Cl)c(Cl)c2)C(F)(F)F)cc1C(F)(F)F (stereo partly drawn) [F61, 4-((Z)-1,4,4,4-Tetrafluoro-3-(3,4,5-trichlorophenyl)but-1-en-1-yl)-N—((R)-1-((2,2,2-trifluoroethyl)amino)propan-2-yl)-2-(trifluoromethyl)benzamide] |  |  | 50 to 100 |  |  | 50 to 100 |
| N#CC1(NC(=O)c2ccc(/C(F)=C/C(c3cc(Cl)c(Cl)c(Cl)c3)C(F)(F)F)cc2C(F)(F)F)CC1 (stereo not shown) [F62, (Z)—N-(1-Cyanocyclopropyl)-4-(1,4,4,4-tetrafluoro-3-(3,4,5-trichlorophenyl)but-1-en-1-yl)-2-(trifluoromethyl)benzamide] |  |  | 50 to 100 |  |  | 50 to 100 |
| O=C(NC1CC(F)(F)C1)c1ccc(/C(F)=C/C(c2ccc(F)c(Cl)c2)C(F)(F)F)cc1C(F)(F)F (stereo not shown) [F63, (Z)-4-(3-(3-Chloro-4-fluorophenyl)-1,4,4,4-tetrafluorobut-1-en-1-yl)-N-(3,3-difluorocyclobutyl)-2-(trifluoromethyl)benzamide] |  |  | 50 to 100 |  |  | 50 to 100 |
